Values joined by “and” are separate entries in the source; they are usually repeats but may differ in a detail not shown here. Identical values can stand only once.
Columns and labels:
RSV-A Memphis-37b [1] = assay: RSV human challenge study: viral load in nasal wash by RT-qPCR; assay type: in vivo; conditions: for AUC of viral load (RT-qPCR), fixed time period of 6.5 days, mean (SE) / AUC of viral load (RT-qPCR), fixed time period of 6.5 days, reduction in mean vs placebo: fixed 6.5 days
Procedure: (§1) Subjects were screened outside the RSV season for eligibility, including measurement of RSV-A Memphis-37b-specific neutralizing antibody titer, ≤90 days before virus challenge. Eligible subjects were admitted to the quarantine unit on day −2 or day −1 and were inoculated intranasally on day 0 with the challenge virus, RSV-A Memphis-37b (4 log10 PFU/ml, given as one 0.4-ml installation per naris), as previously described ([26]). Nasal wash sampling every 12 h for confirmation of RSV infection by qualitative integrated cycler PCR ([12], [19]) began on the morning of day 2. Treatment began 12 h (±1 h) after collection of a nasal wash sample confirming RSV infection or on the evening of day 5 if RSV infection remained unconfirmed by the morning of day 5.
(§2) The study comprised two consecutive cohorts. […] Subjects were discharged on day 12 if nasopharyngeal swab samples tested negative by RSV rapid antigen assay (QuickVue RSV test; Quidel, San Diego, CA, USA). If such tests were positive or if a subject remained symptomatic, quarantine was extended to allow further observation. All subjects were evaluated on day 28 (±3 days).
(§3) Twice-daily collection of nasal wash samples allowed measurement of viral load via RT-qPCR and quantitative culture. RT-qPCR results were reported as PFUe/ml when the standard curve included in each assay contained a known infectious amount (PFU) of RSV, as described previously ([30]). Subjects reported the occurrence and severity of symptoms three times daily using a 10-item subject symptom diary card as previously reported ([12]) (see Supplemental Methods). Throughout the quarantine period, used tissues were collected and weighed daily, and total nasal mucus weight was recorded. PK assessments were based on venous blood samples. Safety assessments included measurement of vital signs, standard 12-lead ECG recordings, spirometry, a complete physical examination, and a respiratory-directed physical examination. AEs were monitored daily, coded according to the Medical Dictionary for Regulatory Activities Version 20.0, and graded according to the National Cancer Institute Common Terminology Criteria for Adverse Events Version 4.0 (see Supplemental Methods for further details).
(§4) The primary efficacy endpoint was AUC for RSV viral load, as measured by RT-qPCR, in nasal wash samples taken twice daily from just before the first dose until discharge (day 12). Viral load data were provided as log10 PFUe/ml; AUC (log10 PFUe/ml · h) was calculated using the trapezoid rule. Secondary efficacy endpoints related to viral load were AUC of RSV viral load, as assessed by quantitative culture, and the following measures, which were each assessed using both RT-qPCR and quantitative culture: peak viral load, time to peak viral load, and time to <1 log10 (for RT-qPCR) or undetectable (for quantitative culture) viral load (considered to occur at the first confirmed undetectable assessment after which no further virus was detected). Secondary efficacy endpoints related to clinical symptoms included AUC total symptom score; peak total symptom score; time to peak total symptom score; and the total weight of nasal mucus produced. Other secondary outcomes were safety, PK, and sequence detection of viral variants (see Supplemental Methods).
The primary efficacy analysis population (the ITT-I analysis set) comprised all randomized subjects who received challenge virus and at least one dose of study drug and met the criterion for laboratory-confirmed RSV infection (presence of detectable RSV). Sensitivity analyses were based on a subset of the ITT-I population who had first detectable RSV infection prior to study drug administration (the ITT-A analysis set) and a fixed time period of 6.5 days (comprising data for all subjects for 6.5 days of evaluation after the first dose, regardless of the staggered commencement of dosing). […]

RSV-A Memphis-37b [2] = assay: RSV human challenge study: disease severity (total symptom score, nasal mucus weight); assay type: in vivo
Procedure: as §1, §2, §3, §4
All statistical analyses were performed using two-sided testing. Student’s t tests were performed for normally distributed data with a constant variance; otherwise, the Satterthwaite t test or nonparametric tests were used. For the mucus weight analysis, the least-squares mean was calculated from a mixed model with repeated measures, adjusted for baseline mucus weight and treatment group as covariates and subject as a random effect.

[3] = test system: RSV-A (panel of 10 clinical strains); assay: In vitro susceptibility of RSV by plaque assay, RSV-A; assay type: cell-based; conditions: human respiratory syncytial virus
Procedure: (§5) Previous RSV challenge studies achieved antiviral efficacy with peripheral blood trough exposure levels over 3× the protein binding-adjusted in vitro EC90 ([12]). Based on the phase 1 PK data, this level of exposure was predicted to be achieved on or after the first dose in the majority of subjects with a 200-mg dose and to be met or exceeded on or after the first dose in all subjects with a 350-mg dose. The in vitro EC90 was determined using a panel of clinical isolates of RSV (Table S7).
(§6) EC50 range (nM) EC90 range (nM)
(§7) EC50 and EC 90 were determined by plaque assay.
(§8) EC50, 50% effective concentration; EC90, 90% effective concentration; RSV, respiratory

[4] = test system: RSV-B (panel of 10 clinical strains); assay: In vitro susceptibility of RSV by plaque assay, RSV-B; assay type: cell-based; conditions: human respiratory syncytial virus
Procedure: as §5, §6, §7, §8

[5] = preclinical evaluations, including juvenile toxicology studies; cited from earlier work
[6] = 200 mg, ITT-A, fixed time period of 6.5 days
[7] = 350 mg, ITT-A, fixed time period of 6.5 days

NCc1ccc2c(c1)nc(CN1C(=O)C3(CC3)c3ccc(F)cc31)n2CCCC(F)(F)F [RV521]
AUC of viral load (RT-qPCR), mean (SE) (RSV-A Memphis-37b [1]; 200 mg, ITT-A): 236.81 (37.63) hours x log 10 PFUe/mL
AUC of viral load (RT-qPCR), reduction in mean vs placebo (RSV-A Memphis-37b [1]; 200 mg, ITT-A): 59.74%
Peak viral load (RT-qPCR), mean (SE) (RSV-A Memphis-37b [1]; 200 mg, ITT-A): 3.63 (0.26) log10 PFUe/mL
Time to <1 log10 viral load (RT-qPCR), median (Q1, Q3) (RSV-A Memphis-37b [1]; 200 mg, ITT-A): 3.0 (3.0, 6.0) days
Time to peak viral load (RT-qPCR), mean (SE) (RSV-A Memphis-37b [1]; 200 mg, ITT-A): 0.94 (0.11) days
AUC of viral load (RT-qPCR), mean (SE) (RSV-A Memphis-37b [1]; [6]): 234.29 (37.07) log10 PFUe/mL x hours
AUC of viral load (RT-qPCR), reduction in mean vs placebo (RSV-A Memphis-37b [1]; [6]): –276.21 log10 PFUe/mL x hours
AUC of viral load (RT-qPCR), mean (SE) (RSV-A Memphis-37b [1]; 200 mg, ITT-I): 224.35 log10 PFUe/ml · h and 224.35 (37.60) log10 PFUe/ml · h
AUC of viral load (RT-qPCR), reduction in mean vs that of placebo (RSV-A Memphis-37b [1]; 200 mg, ITT-I): 55.25%
AUC of viral load (RT-qPCR, unlogged), mean (SE) (RSV-A Memphis-37b [1]; 200 mg, ITT-I): 1,087,294.53 (604,070.11) PFUe/ml · h
AUC of viral load (RT-qPCR, unlogged), reduction in mean vs that of placebo (RSV-A Memphis-37b [1]; 200 mg, ITT-I): 99.10%
Peak viral load (RT-qPCR), mean (SE) (RSV-A Memphis-37b [1]; 200 mg, ITT-I): 3.47 log10 PFUe/ml and 3.47 (0.30) log10 PFUe/ml
Time to <1 log10 viral load (RT-qPCR), median (Q1, Q3) (RSV-A Memphis-37b [1]; 200 mg, ITT-I): 3.0 days and 3.0 (3.0, 6.0) (n = 17) days
Time to peak viral load (RT-qPCR), mean (SE) (RSV-A Memphis-37b [1]; 200 mg, ITT-I): 0.95 days and 0.95 (0.11) days
Mean viral load at time of peak viral load in placebo arm (day 3; RT-qPCR), mean (SE) (RSV-A Memphis-37b [1]; 200 mg, ITT-I): 1.35 (0.36) log10 PFUe/ml
AUC of viral load (RT-qPCR), fixed time period of 6.5 days, mean (SE) (RSV-A Memphis-37b [1]; 200 mg, ITT-I): 221.98 (37.05) log10 PFUe/ml · h
AUC of viral load (RT-qPCR), fixed time period of 6.5 days, reduction in mean vs placebo (RSV-A Memphis-37b [1]; 200 mg, ITT-I): 49.08%
AUC of viral load (RT-qPCR), mean (SE) (RSV-A Memphis-37b [1]; 350 mg, ITT-A): 210.61 (29.76) hours x log 10 PFUe/mL
AUC of viral load (RT-qPCR), reduction in mean vs placebo (RSV-A Memphis-37b [1]; 350 mg, ITT-A): 64.19%
Peak viral load (RT-qPCR), mean (SE) (RSV-A Memphis-37b [1]; 350 mg, ITT-A): 3.58 (0.40) log10 PFUe/mL
Time to <1 log10 viral load (RT-qPCR), median (Q1, Q3) (RSV-A Memphis-37b [1]; 350 mg, ITT-A): 3.5 (3.0, 4.0) days
Time to peak viral load (RT-qPCR), mean (SE) (RSV-A Memphis-37b [1]; 350 mg, ITT-A): 1.65 (0.39) days
AUC of viral load (RT-qPCR), mean (SE) (RSV-A Memphis-37b [1]; [7]): 207.56 (28.74) log10 PFUe/mL x hours
AUC of viral load (RT-qPCR), reduction in mean vs placebo (RSV-A Memphis-37b [1]; [7]): –302.95 log10 PFUe/mL x hours
AUC of viral load (RT-qPCR), mean (SE) (RSV-A Memphis-37b [1]; 350 mg, ITT-I): 185.26 log10 PFUe/ml · h and 185.26 (31.17) log10 PFUe/ml · h
AUC of viral load (RT-qPCR), reduction in mean vs that of placebo (RSV-A Memphis-37b [1]; 350 mg, ITT-I): 63.05%
AUC of viral load (RT-qPCR, unlogged), mean (SE) (RSV-A Memphis-37b [1]; 350 mg, ITT-I): 1,356,521.31 (1,117,131.13) PFUe/ml · h
AUC of viral load (RT-qPCR, unlogged), reduction in mean vs that of placebo (RSV-A Memphis-37b [1]; 350 mg, ITT-I): 98.87%
Peak viral load (RT-qPCR), mean (SE) (RSV-A Memphis-37b [1]; 350 mg, ITT-I): 3.17 log10 PFUe/ml and 3.17 (0.45) log10 PFUe/ml
Time to <1 log10 viral load (RT-qPCR), median (Q1, Q3) (RSV-A Memphis-37b [1]; 350 mg, ITT-I): 3.5 days and 3.5 (3.0, 4.0) (n = 13) days
Time to peak viral load (RT-qPCR), mean (SE) (RSV-A Memphis-37b [1]; 350 mg, ITT-I): 1.63 days and 1.63 (0.34) days
Mean viral load at time of peak viral load in placebo arm (day 3; RT-qPCR), mean (SE) (RSV-A Memphis-37b [1]; 350 mg, ITT-I): 0.80 (1.07) log10 PFUe/ml
AUC of viral load (RT-qPCR), fixed time period of 6.5 days, mean (SE) (RSV-A Memphis-37b [1]; 350 mg, ITT-I): 182.59 (30.29) log10 PFUe/ml · h
AUC of viral load (RT-qPCR), fixed time period of 6.5 days, reduction in mean vs placebo (RSV-A Memphis-37b [1]; 350 mg, ITT-I): 58.12%
AUC of total symptom score, mean (SE) (RSV-A Memphis-37b [2]; 200 mg, ITT-A): 117.9 (35.26) score x hours
AUC of total symptom score, reduction in mean vs placebo (RSV-A Memphis-37b [2]; 200 mg, ITT-A): 73.06%
Daily nasal mucus weight, LS mean (RSV-A Memphis-37b [2]; 200 mg, ITT-A): 0.32 g
Peak total symptom score, mean (SE) (RSV-A Memphis-37b [2]; 200 mg, ITT-A): 2.5 (0.49)
Time to peak total symptom score, mean (SE) (RSV-A Memphis-37b [2]; 200 mg, ITT-A): 1.82 (0.67) days
Time to resolution from peak total symptom score, mean (SE) (RSV-A Memphis-37b [2]; 200 mg, ITT-A): 2.73 (0.39) days
AUC of total symptom score, mean (SE) (RSV-A Memphis-37b [2]; [6]): 117.41 (35.26) score x hours
AUC total symptom score, mean (SE) (RSV-A Memphis-37b [2]; 200 mg, ITT-I): 111.35 (33.88) score × hours
Daily nasal mucus weight, LS mean (RSV-A Memphis-37b [2]; 200 mg, ITT-I): 0.33 g
Time to peak total symptom score, mean (SE) (RSV-A Memphis-37b [2]; 200 mg, ITT-I): 2.08 (0.68) days
AUC of total symptom score, mean (SE) (RSV-A Memphis-37b [2]; 200 mg, ITT-I, fixed time period of 6.5 days): 111.35 (33.88) score x hours
AUC of total symptom score, mean (SE) (RSV-A Memphis-37b [2]; 350 mg, ITT-A): 92.98 (26.81) score x hours
AUC of total symptom score, reduction in mean vs placebo (RSV-A Memphis-37b [2]; 350 mg, ITT-A): 78.75%
Daily nasal mucus weight, LS mean (RSV-A Memphis-37b [2]; 350 mg, ITT-A): 0.26 g
Peak total symptom score, mean (SE) (RSV-A Memphis-37b [2]; 350 mg, ITT-A): 2.1 (0.49)
Time to peak total symptom score, mean (SE) (RSV-A Memphis-37b [2]; 350 mg, ITT-A): 1.26 (0.55) days
Time to resolution from peak total symptom score, mean (SE) (RSV-A Memphis-37b [2]; 350 mg, ITT-A): 2.44 (0.43) days
AUC of total symptom score, mean (SE) (RSV-A Memphis-37b [2]; [7]): 92.98 (26.81) score x hours
AUC total symptom score, mean (SE) (RSV-A Memphis-37b [2]; 350 mg, ITT-I): 82.41 (24.45) score × hours
Daily nasal mucus weight, LS mean (RSV-A Memphis-37b [2]; 350 mg, ITT-I): 0.27 g
Time to peak total symptom score, mean (SE) (RSV-A Memphis-37b [2]; 350 mg, ITT-I): 1.56 (0.57) days
AUC of total symptom score, mean (SE) (RSV-A Memphis-37b [2]; 350 mg, ITT-I, fixed time period of 6.5 days): 82.41 (24.45) score x hours
EC50 ([3]; read-out: EC50 range): 0.3 to 1 nM
EC90 ([3]; read-out: EC90 range): 2.5 to 5.6 nM
EC50 ([4]; read-out: EC50 range): 0.4 to 1.4 nM
EC90 ([4]; read-out: EC90 range): 2 to 10.4 nM
Safety profile [5]: good safety profile

From PMC6985722 (Antimicrobial Agents and Chemotherapy, 2020)
